Measured values from ChEMBL document CHEMBL1201862, “PubChem BioAssay data set” (2004).
Activity calls are given as the source filed them.

How the values were obtained:
[1] = biological target: T1, Oxysterols receptor LXR-beta (Homo sapiens, UniProt P55055); format: functional, cell-based;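 note: agonist activity at LXR measured by a cell-based luminescence readout across a dose range, run as a counterscreen for daf-12 agonists; HEK293 cells with Gal4-LXR fusion and GAL4-driven luciferase reporter; potency for activation of Gal4-LXR reporter so compounds are agonists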
T1 sequence (P55055 whole entry): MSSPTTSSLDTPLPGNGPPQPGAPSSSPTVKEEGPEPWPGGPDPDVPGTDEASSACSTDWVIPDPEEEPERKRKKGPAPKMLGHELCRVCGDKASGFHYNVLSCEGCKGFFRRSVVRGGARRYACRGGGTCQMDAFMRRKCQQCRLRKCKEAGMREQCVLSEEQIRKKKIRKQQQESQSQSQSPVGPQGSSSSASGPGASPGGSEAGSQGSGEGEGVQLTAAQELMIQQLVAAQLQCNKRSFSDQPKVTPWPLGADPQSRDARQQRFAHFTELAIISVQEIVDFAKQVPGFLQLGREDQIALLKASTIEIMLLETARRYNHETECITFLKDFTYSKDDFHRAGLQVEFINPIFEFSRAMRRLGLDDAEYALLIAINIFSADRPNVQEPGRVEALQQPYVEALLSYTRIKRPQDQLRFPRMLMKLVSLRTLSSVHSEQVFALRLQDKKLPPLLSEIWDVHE

[2] = biological target: T2, Aryl hydrocarbon receptor (Homo sapiens, UniProt P35869); experiment: Luminescence-based cell-based high throughput dose response assay for activators of the Aryl Hydrocarbon Receptor (AHR). [Related pubchem assays: 2796 (Primary screen (AHR activators in singlicate)), 2845 (Confirmation screen (AHR activators in triplicate)), 434939 (Counterscreen (PXR activators in triplicate)), 2804 (Summary (AHR activators))]; format: ADME
T2 sequence (P35869 whole entry): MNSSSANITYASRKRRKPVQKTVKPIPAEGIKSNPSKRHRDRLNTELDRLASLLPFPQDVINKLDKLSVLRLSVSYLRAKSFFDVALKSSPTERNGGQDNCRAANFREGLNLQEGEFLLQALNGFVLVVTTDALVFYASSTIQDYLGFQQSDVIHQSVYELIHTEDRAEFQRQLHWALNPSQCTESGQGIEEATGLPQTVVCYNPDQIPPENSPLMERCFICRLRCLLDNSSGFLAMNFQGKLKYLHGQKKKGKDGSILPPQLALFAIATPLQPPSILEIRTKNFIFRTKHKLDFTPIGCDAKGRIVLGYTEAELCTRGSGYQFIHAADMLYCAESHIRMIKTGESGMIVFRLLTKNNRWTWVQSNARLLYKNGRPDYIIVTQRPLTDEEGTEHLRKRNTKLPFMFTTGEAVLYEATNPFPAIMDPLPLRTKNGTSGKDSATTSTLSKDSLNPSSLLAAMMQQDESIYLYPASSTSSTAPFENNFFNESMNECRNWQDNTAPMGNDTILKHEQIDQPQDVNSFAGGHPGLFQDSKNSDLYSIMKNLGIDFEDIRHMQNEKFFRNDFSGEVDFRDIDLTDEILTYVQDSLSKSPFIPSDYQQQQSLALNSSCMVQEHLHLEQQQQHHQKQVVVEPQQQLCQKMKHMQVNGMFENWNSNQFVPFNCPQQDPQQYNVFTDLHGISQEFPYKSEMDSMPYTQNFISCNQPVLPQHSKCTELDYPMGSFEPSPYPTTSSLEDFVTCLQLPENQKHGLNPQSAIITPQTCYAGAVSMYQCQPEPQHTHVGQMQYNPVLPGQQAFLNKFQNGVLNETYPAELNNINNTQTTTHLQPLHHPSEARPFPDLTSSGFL

[3] = viability of uninfected HEp-2 cells – cell-based, HTS, cytotoxicity control for RSV inhibitor project, dose response (AID 2410); format: functional; conditions: human respiratory syncytial virus
[4] = biological target: DNA damage-inducible transcript 3 protein (Mus musculus, UniProt P35639); format: functional, Cricetulus griseus
Chain of DNA damage-inducible transcript 3 protein (P35639 whole entry): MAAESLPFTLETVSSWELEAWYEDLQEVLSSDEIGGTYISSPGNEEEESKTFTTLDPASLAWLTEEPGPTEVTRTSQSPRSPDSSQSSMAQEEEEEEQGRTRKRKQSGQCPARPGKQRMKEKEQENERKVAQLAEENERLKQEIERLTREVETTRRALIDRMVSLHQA

Protein skinhead-1 = biological target: T3, Protein skinhead-1 (Caenorhabditis elegans, UniProt P34707); format: functional
T3 sequence (P34707 whole entry): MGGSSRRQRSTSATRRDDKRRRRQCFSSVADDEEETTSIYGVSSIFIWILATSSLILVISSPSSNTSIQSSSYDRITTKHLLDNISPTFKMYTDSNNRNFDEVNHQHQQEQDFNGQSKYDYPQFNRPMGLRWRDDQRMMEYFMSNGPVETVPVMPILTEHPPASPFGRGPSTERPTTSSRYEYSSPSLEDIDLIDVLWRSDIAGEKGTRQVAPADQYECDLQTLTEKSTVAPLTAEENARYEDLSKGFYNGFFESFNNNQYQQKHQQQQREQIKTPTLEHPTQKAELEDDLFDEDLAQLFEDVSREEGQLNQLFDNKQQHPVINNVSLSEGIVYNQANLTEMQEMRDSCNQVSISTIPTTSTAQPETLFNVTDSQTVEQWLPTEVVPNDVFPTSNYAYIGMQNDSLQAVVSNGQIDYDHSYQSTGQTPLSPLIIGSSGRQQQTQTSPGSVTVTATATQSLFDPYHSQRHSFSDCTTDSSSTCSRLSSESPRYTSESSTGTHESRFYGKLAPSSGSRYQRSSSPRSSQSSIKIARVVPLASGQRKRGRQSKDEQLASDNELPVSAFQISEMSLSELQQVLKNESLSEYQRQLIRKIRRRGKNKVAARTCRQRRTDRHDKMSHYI

X-box-binding protein 1 = X-box-binding protein 1 (Homo sapiens, UniProt P17861); format: functional, Cricetulus griseus;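 note: confirmatory dose-response counter-screen serving a CHOP assay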
Chain of X-box-binding protein 1 (P17861 whole entry): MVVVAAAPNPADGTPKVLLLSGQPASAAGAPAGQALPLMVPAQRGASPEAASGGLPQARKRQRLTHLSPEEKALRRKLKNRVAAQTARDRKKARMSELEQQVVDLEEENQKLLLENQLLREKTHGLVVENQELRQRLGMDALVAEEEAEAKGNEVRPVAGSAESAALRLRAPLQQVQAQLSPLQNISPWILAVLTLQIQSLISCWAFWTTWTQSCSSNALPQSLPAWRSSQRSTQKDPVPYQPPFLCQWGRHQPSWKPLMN

Coagulation factor XII = biological target: T4, Coagulation factor XII (Homo sapiens, UniProt P00748); experiment: activated coagulation factor XII inhibitor potency, concentration-effect curve, cell-free (AID 716); format: functional
T4 sequence (P00748 whole entry): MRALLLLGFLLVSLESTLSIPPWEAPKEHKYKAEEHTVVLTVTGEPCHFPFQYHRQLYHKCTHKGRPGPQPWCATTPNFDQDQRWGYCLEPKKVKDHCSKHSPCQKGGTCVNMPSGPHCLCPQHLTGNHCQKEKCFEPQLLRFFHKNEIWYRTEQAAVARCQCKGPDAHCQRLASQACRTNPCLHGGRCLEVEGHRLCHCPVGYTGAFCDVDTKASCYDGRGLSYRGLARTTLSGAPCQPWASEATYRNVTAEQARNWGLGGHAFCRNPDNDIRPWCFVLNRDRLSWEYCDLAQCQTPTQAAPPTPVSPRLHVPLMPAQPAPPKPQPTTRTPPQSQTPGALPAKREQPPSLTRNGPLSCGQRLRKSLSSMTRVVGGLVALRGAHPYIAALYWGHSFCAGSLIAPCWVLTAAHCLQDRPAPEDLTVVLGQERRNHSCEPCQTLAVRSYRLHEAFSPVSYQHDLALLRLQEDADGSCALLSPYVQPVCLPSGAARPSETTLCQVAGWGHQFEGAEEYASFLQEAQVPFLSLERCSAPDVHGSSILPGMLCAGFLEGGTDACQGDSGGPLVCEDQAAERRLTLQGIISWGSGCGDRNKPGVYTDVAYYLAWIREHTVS

[5] = HepG2 cell cytotoxicity, dose response, cytotoxicity control for non-replicating M. tuberculosis project (AID 489018); format: functional; conditions: Mycobacterium tuberculosis
[6] = THP-1 cell cytotoxicity, dose response, cytotoxicity control for non-replicating M. tuberculosis project (AID 489025); format: functional
[7] = decrease of insulin promoter-GFP reporter – imaging, high-content screening, mouse beta cells (AID 1628); format: functional; conditions: MIN6
[8] = Vero E6 cell cytotoxicity, dose response, cytotoxicity control for non-replicating M. tuberculosis project, secondary assay (AID 492998); format: functional, VeroE6; conditions: Vero C1008
[9] = viability of HCT116 lacking mutant beta-catenin – cell-based, human colon tumor, dose response (AID 1045); format: functional;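 note: HCT116 colon tumor cells with beta catenin knocked out; cells exposed to compound for 60 hours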
[10] = viability of PTEN-deleted HCT116 cells – cell-based, HCT116 PTEN knockout, dose response (AID 1047); format: functional;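 note: HCT116 colon tumor cells with PTEN knocked out; cells exposed to compound for 60 hours before readout; potency for loss of cell viability measured by luminescence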
cells [11] = format: functional
[12] = MIN6 cell viability loss – mouse insulinoma, cytotoxicity control, dose response (AID 2122); format: functional;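 note: confirmatory high-throughput counterscreen run to flag cytotoxic compounds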
[13] = microbe, parasite or virus in culture; format: functional; conditions: Mycobacterium tuberculosis
Vero = experiment: cells; format: functional; conditions: Chlorocebus sabaeus
Bcl-2-like protein 10 = biological target: T5, Bcl-2-like protein 10 (Homo sapiens, UniProt Q9HD36); experiment: Bcl-B/TR3 peptide binding disruption – biochemical, fluorescence polarization, FITC-TR3 peptide, selectivity assay for Bfl-1 inhibitor project, primary screen (AID 748);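 note: fluorescence polarization from a fluorescein-labelled TR3 peptide binding purified Bcl-B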
T5 sequence (Q9HD36 whole entry): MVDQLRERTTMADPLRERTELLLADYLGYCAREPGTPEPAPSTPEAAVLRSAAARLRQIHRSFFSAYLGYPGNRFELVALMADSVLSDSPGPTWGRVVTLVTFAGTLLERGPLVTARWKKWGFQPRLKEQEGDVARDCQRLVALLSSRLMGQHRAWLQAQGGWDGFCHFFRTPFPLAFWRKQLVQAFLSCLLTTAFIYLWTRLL

[14] = biological target: Induced myeloid leukemia cell differentiation protein Mcl-1 (Homo sapiens, UniProt Q07820); format: functional
Chain of Induced myeloid leukemia cell differentiation protein Mcl-1 (Q07820 whole entry): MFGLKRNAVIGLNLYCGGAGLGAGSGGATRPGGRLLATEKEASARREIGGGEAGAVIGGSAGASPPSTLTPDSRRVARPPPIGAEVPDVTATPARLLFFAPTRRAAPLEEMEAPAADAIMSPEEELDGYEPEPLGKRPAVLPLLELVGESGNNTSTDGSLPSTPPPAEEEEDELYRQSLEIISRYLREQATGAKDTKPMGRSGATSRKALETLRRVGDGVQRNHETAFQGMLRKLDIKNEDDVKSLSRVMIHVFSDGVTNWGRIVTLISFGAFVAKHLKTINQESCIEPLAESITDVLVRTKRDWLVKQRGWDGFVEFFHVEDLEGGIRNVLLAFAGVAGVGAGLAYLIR

cells [15] = format: functional, cell-based
cells [16] = format: functional, cell-based; remark: listed apart in the source

Clc1ccc(Nc2nc(-c3cccs3)cs2)nc1
EC50 [1]: > 67.5 µM (inactive) | EC50 [2]: 1.58 µM (active) | CC50 [3]: 8.33 µM (active) | Absolute IC50 (CHOP) [4]: 10 µM | IC50 (Protein skinhead-1): 13.6 µM (active) | Absolute IC50 (XBP1) (X-box-binding protein 1): 10 µM

CC(=O)Nc1nc(=O)c2ccccc2s1
IC50 (Coagulation factor XII): > 50 µM (inactive)

COc1cccc(CNCCc2c[nH]c3ccccc23)c1OCc1ccc(F)cc1
CC50 [5]: 9.79 µM (active) | CC50 [6]: 15.6 µM (active) | IC50 [7]: 2.56 µM (active) | CC50 [8]: 13.4 µM (active) | EC50 [9]: 6.39 µM (active) | EC50 [10]: 5.74 µM (active) | IC50 (cells [11]): 16.4 µM (active) | IC50 [12]: 3.37 µM (active)

O=C(c1ccc(Cl)cc1)N1N=C(c2ccccn2)CC1(O)C(F)(F)F (configuration not stated)
CC50 [5]: 15.2 µM (active) | CC50 [6]: 11.6 µM (active) | CC50 [8]: 13.3 µM (active) | CC50 [13]: 32.6 µM (active) | IC50 (cells [11]): 3.69 µM (active) | CC50 (Vero): 20.4 µM (active)

Clc1ccc(-c2csc(N/N=C/c3cccnc3)n2)c(Cl)c1
Absolute IC50 (CHOP) [4]: 10 µM | Absolute IC50 (XBP1) (X-box-binding protein 1): 10 µM

Cc1ccc(N=Nc2ccc(O)c(/C=N\NC(=O)c3ccc(N)cc3)c2)cc1C
IC50 (Bcl-2-like protein 10): > 100 µM (inactive) | IC50 [14]: 2.62 µM (active) | EC50 (cells [15]): > 350 µM (not active) | EC50 (cells [16]): > 350 µM (not active)
